Patent US11821892B2, “Nanobubbles” (Purdue Research Foundation, priority 2014, dated 2023)

How the values were obtained:
HIF-1 = experiment: Immunohistochemistry of mouse bladder tumors, HIF-1; format: in vivo; settings: ex vivo mouse bladder tumor, compared to control
Method: (§1) Histology slides were prepared and immunohistochemistry was performed at Immunohistochemistry Laboratory at IU Health Pathology. Harvested organ tissue and bladder tumors were fixed in formalin-free IHC Zinc Fixative, embedded in paraffin, and sectioned into 5 μm slices. HIF-1 and VEGF immunohistochemistry was performed using buffered zinc formalin fixed tumor section. Blocking, antigen retrieval, and primary and secondary antibody staining were performed […]. The tissue sections were imaged using Leica DMi1 inverted microscope, and image processing was performed using ImageJ software (Research Services, National Institute of Health). Each tissue section was imaged under ×20 and ×40 magnification, composite images were converted to RGB stacks and integrated density of staining was calculated.
(§2) Angiogenesis and high density of blood vessels has been correlated with poor prognosis, metastasis, and bladder cancer invasion in clinical studies.

MB49 cells = experiment: In vitro beam steering factorial design, MB49 cell viability; format: cell-based, mouse
MB49 bladder tumor [1] = experiment: Intravesical treatment with ultrasound beam steering in orthotopic MB49 bladder cancer mouse model; settings: in vivo
Description: (§3) Female C57BL/6 mice were anesthetized by 1-2% isoflurane gas inhalation at 2 L/min. Electrocauterization technique was used to create a minor injury on the wall of the bladder for MB49 cells to adhere to. A 24 gauge Teflon catheter (Terumo Surflo PTFE I.V. Catheters, Fisher Scientific) was inserted into the bladder through the urethra. Minor pressure was applied onto the bladder area to release the urine from the bladder. A wire, connected to the electrocautery unit was then instilled into the bladder through the catheter. 1×10^4 MB49 cells were then instilled into the bladder; dwelling time was approximately 20 minutes to allow the cells to adhere to the injured bladder wall.
(§4) After the bubbles were injected intravesically, a pulsed wave Doppler beam was applied for five minutes and B-mode images were recorded.
(§5) The mice were imaged 48 hours after the instillation of the tumors and treatment was administered every other day based on previously established protocols.
(§6) 3D images of bladder tumor were taken every other day using the Vevo 2100 ultrasound imaging system (Fujifilm VisualSonics Inc., Toronto CA). Vevo Lab software was used to manually segment given 3D images in 2D slices, with step sizes that can be as small as 10 μm. Segmentation of a 3D image allowed accurate volume measurements to be taken from each 3D image. […]

VEGF = experiment: Immunohistochemistry of mouse bladder tumors, VEGF; format: in vivo; settings: ex vivo mouse bladder tumor, compared to control
Method: as §1, §2

MB49 bladder tumor [2] = settings: MMC 1 μg/mL; ONB-MMC 0.5 μg/mL MMC and 2 mg/mL ONB; intravesical
Description: as §3, §4, §5, §6

In the case of `CO[C@@]12[C@H](COC(N)=O)C3=C(C(=O)C(C)=C(N)C3=O)N1C[C@@H]1N[C@@H]12` [MMC, mitomycin-C], the “HIF-1 expression (IHC)” value (HIF-1) is reported as “significantly lower”, the “effect on MB49 cell viability (factorial design)” value (MB49 cells; MMC 0.05-5 μg/mL, ONB 0.2-20 mg/mL) is reported as “significant in decreasing cell viability” and the “effect of ultrasound beam steering on cell viability” value (MB49 cells; beam ON/OFF, MMC 0.5 μg/mL and ONB 2 mg/mL at medium concentration) is reported as “No significant effect”. The “average mouse body weights compared to ONB-MMC groups” value (MB49 bladder tumor [1]) was “significantly lower”, the “VEGF expression (IHC)” value (VEGF) was “significantly lower” and the “tumor volume compared to CTRL” value (MB49 bladder tumor [2]) was “significant in reducing the tumor volume”.
